Series [1] relates to U266 cells (multiple myeloma). The series can be described thus: Proliferation inhibition, U266 (cck-8). The format is cell-based. As to conditions: Homo sapiens, U-266; 96 h incubation. The text has this:
(§1) Calculating the value of IC50 as per the formula: Y=background data+(top data−background data)/(1+10^((Log IC50−X)*rate of curve)). Where, Y refers to the inhibition ratio (%) and X refers to the compound concentration.

Series [2] deals with hct116 cells (colon cancer). Nature of the series: Cell proliferation inhibition, hct116 (MTT). The format is cell-based. The note with it: Homo sapiens, HCT-116; 96 h incubation; read-out: Proliferation IC50, Colon cancer hct116. In outline:
(§2)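 Cells seeded at 2000-3000/well; adherent lines dosed after attachment, then 96 h incubation with compound. Viability read by MTT for solid-tumour lines (HCT116, A2780s) and CCK-8 for MV4-11; IC50 from four-parameter logistic fit of inhibition ratio versus concentration.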

The test system of series [3] is MV4-11 cells (acute myeloid leukemia). The series can be described thus: Cell proliferation inhibition, MV4-11 (cck-8). The note with it: Homo sapiens, 96 h incubation, read-out: Proliferation IC50, Acute myeloid leukemia MV4-11. It counts as cell-based. The gist of the method:
as §2

The target of series [4] is T1, PI3Kγ (Homo sapiens, UniProt P48736).
T1 construct: purchased Invitrogen PR8641C
Nature of the series: PI3Kγ activity inhibition (ADP-Glo). It counts as biochemical. As to conditions: Table 4, graded. The protocol: (§3) Detecting the inhibition capability of the compound to PI3Kβ and PI3Kγ activities with ADP-Glo (purchased from Promege Company; Catalog No.: v9102/3). […] The reaction system also comprises substrates as PIP2 and ATP. The reaction buffer system comprises 50 mM HEPES, 3 mM MgCl2, 1 mM EGTA, 100 mM NaCl, 0.03% CHAPS and 2 mM DTT. The pH value of the reaction buffer is 7.5. […] Mixing the system evenly for incubation under ambient temperature for 1 h; getting a new 384 well plate and transferring 5 μL reaction liquid from the each well of original 384 well plate to the corresponding wells of the new 384 well plate; adding 5 μL ADP-Glo which has been preheated to ambient temperature into each new reaction well to terminate the reaction; oscillating it slowly in dark place for 40 min's incubation after it is mixed evenly; adding 10 μL testing liquid in each reaction well, oscillating it for 1 min to mix evenly and incubating it for 1 h, then measuring the fluorescence intensity with a microplate reader and analyzing the result data with the software GraphPad Prism.
(§4) Calculating the value of IC50 as per the formula: Y=background data+(top data−background data)/(1+10^((Log IC50−X)*rate of curve))
(§5) Where, Y refers to the inhibition ratio (%) and X refers to the compound concentration.
Background: ADP-Glo first removes unused ATP, then detects ADP through luciferase.

A further series deals with T2, PI3Kβ (Homo sapiens, UniProt P42338).
T2 construct: purchased Millipore 14-603-K
Nature of the series: PI3Kβ activity inhibition (ADP-Glo). The format is biochemical. The note with it: Table 4, graded. The protocol: as §3, §4, §5

Series [5] relates to MV4-11 subcutaneous tumor. As to conditions: 10 mg/kg i.v., once per two days, 22 days. The source says:
During drug administration, measuring the weight and gross tumor volume of the mice per 2 days and keeping a record. The calculation formula is as V=π/6×A^2×B, where, where, V=gross tumor volume (mm^3), A=tumor width (mm) and B=tumor length (mm). Observing and keeping a record for the survival condition of the tested animals. After drug discontinuance, killing the mice through cervical dislocation and peeling off their tumors as per the operation specification of animal experiment. Evaluating the inhibition capability of the compounds to tumor activities by calculating the tumor inhibitory rate with the formula as: tumor inhibitory rate=(1−tumor weight of treatment group/tumor weight of control group)×100%. Analyzing and comparing the difference between each treatment group and control group with the method of t-test. The grading of significance level of difference is: ***, P<0.001; **, P<0.01; *, P<0.05; no statistical significance (ns), P>0.05.

Series [6] has as its system Ramos cells (B-cell lymphoma). Nature of the series: Proliferation inhibition, Ramos (cck-8). It counts as cell-based. As to conditions: Homo sapiens, 96 h incubation.
Excerpt: as §1

The test system of series [7] is acetylated histone H3 (Ac-H3) in A2780s cells. The series can be described thus: Induction of histone H3 acetylation in A2780s cells (cytoblot). The format is cell-based. The note with it: Homo sapiens, 6 h treatment. The protocol:
(§6) Specific operation: After the treatment, washing each well once with 50-100 μl of cold TBS buffer [with the composition as 20 mM Tris (trismetyl aminomethane), pH7.5] and fixing it with 100 μL of 4% pre-cooled paraformaldehyde at 4° C. for 1 h; after paraformaldehyde is washed off, adding 50 μL of pre-cooled methyl alcohol in each well and evenly spreading at 4° C. for 5 min; after methyl alcohol is washed off, washing it once with the TBS buffer containing 3% skim milk powder and adding 50 μL of antibody fluid, oscillating it slightly at 4° C. and incubating overnight. For determination of Ac—H3, the antibody fluid is prepared by diluting Ac—H3 antibody and horseradish peroxide coupled secondary antibody to a same system with the TBS buffer containing 3% skim milk powder (Ac—H3 antibody is purchased from Santa Cruz Company and diluted at a ratio of 1:100; horseradish peroxide coupled secondary antibody is purchased from Jackson Company and diluted at a ratio of 1:2000); for determination of acetylated Ac-α-tubulin, the antibody fluid is prepared by diluting Ac-α-tubulin antibody and horseradish peroxide coupled secondary antibody to a same system with the TBS buffer containing 3% skim milk powder (Ac-α-tubulin antibody is purchased from Santa Cruz Company and diluted at a ratio of 1:100; horseradish peroxide coupled secondary antibody is purchased from Jackson Company and diluted at a ratio of 1:2000).
(§7) Calculating the value of IC50 as per the formula: Y=background data+(top data−background data)/(1+10^((Log EC50−X)*rate of curve)) Where, Y refers to the activating rate (%) and X refers to the compound concentration.

Series [8] relates to HBL-1 cells (B-cell lymphoma). Nature of the series: Proliferation inhibition, HBL-1 (cck-8). The format is cell-based. As to conditions: Homo sapiens, HBL1; 96 h incubation.
Excerpt: as §1

Series [9] has as its system OCI-LY1 cells (B-cell lymphoma). Nature of the series: Proliferation inhibition, OCI-LY1 (cck-8). The format is cell-based. The note with it: Homo sapiens, 96 h incubation.
Excerpt: as §1

The target in the next series is T3, PI3Kδ (Homo sapiens, UniProt O00329).
T3 construct: purchased Millipore 14-604-K
The series can be described thus: PI3Kδ activity inhibition (Kinase-Glo). The format is biochemical. As to conditions: Table 4, graded. The method, then: Detecting the inhibition capability of the compound to PI3Kα and PI3Kδ activities with Kinase-Glo (purchased from Promege Company; Catalog No.: V3771). […] The reaction system also comprises substrates as PIP2 (4, 5-diphosphoinositide, purchased from Life Technologies Company) and ATP (triphosadenine, purchased from Sigma Company). The reaction buffer system comprises 50 mM HEPES (4-hydroxyethylpiperazine ethane sulfonic acid), 3 mM MgCl2, 1 mM EGTA (ethylene glycol bis(2-amino ethylether)quadrol), 100 mM NaCl, 0.03% CHAPS (3-[3-(cholamidopropyl)dimethylamino]-1-propanesulfonic acid), 2 mM DTT (dithiothreitol). The pH value of the reaction buffer is 7.5. […] Mixing the system evenly for incubation under ambient temperature (for 1 h in PI3Kα test and for 2 h in PI3Kδ test). After incubation, adding 10 μL Kinase-Glo which has been preheated to ambient temperature into each reaction well to terminate the reaction; shaking it in dark place for 15 min after it is mixed evenly, then measuring the fluorescence intensity with a microplate reader and analyzing the result data with the software GraphPad Prism.
as §4, §5
A general note: Kinase-Glo reads ATP consumption through a luciferase reaction.

Series [10] relates to A2780s cells (ovarian cancer). Nature of the series: Cell proliferation inhibition, A2780s (MTT). It counts as cell-based. As to conditions: Homo sapiens, 96 h incubation, read-out: Proliferation IC50, Ovarian cancer A2780s. The gist of the method: as §2
In series [11] the test system is MM1S cells (multiple myeloma). The series can be described thus: Proliferation inhibition, MM1S (cck-8). The format is cell-based. As to conditions: Homo sapiens, MM1.S; 96 h incubation.
Excerpt: as §1

In series [12] the test system is acetylated Ac-α-tubulin in A2780s cells. Nature of the series: Induction of α-tubulin acetylation in A2780s cells (cytoblot). The format is cell-based. The note with it: Homo sapiens, 6 h treatment, read-out: Ac-Tub EC50. The method, then:
as §6, §7

Another series addresses T4, PI3Kα (Homo sapiens, UniProt P42336).
T4 construct: purchased Invitrogen PV4788
Nature of the series: PI3Kα activity inhibition (Kinase-Glo). The note with it: read-out: PI3Kα IC50. It counts as biochemical. The gist of the method:
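Kinase-Glo luminescence read-out of remaining ATP after PI3K reaction with PIP2 and ATP substrates in 50 mM HEPES pH 7.5, 3 mM MgCl2, 1 mM EGTA, 100 mM NaCl, 0.03% CHAPS, 2 mM DTT. Incubated at ambient temperature, 1 h for PI3Kα, 2 h for PI3Kδ. IC50 from four-parameter fit of % inhibition versus concentration.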

Series [13] concerns RPMI-8226 cells (multiple myeloma). The series can be described thus: Proliferation inhibition, RPMI-8226 (cck-8). It counts as cell-based. The note with it: Homo sapiens, 96 h incubation.
Excerpt: as §1

For series [14], the system named is SUDHL-4 cells (B-cell lymphoma). Nature of the series: Proliferation inhibition, SUDHL-4 (cck-8). It counts as cell-based. The note with it: Homo sapiens, SU-DHL-4; 96 h incubation.
Excerpt: as §1

Series [15] relates to PI3Kγ. As to conditions: read-out: inhibition value to activity of PI3Kγ; literature [1]; cited from earlier work.

Read-outs that look alike come from different tables or passages of the source.

T4 sequence (P42336 whole entry, species assumed): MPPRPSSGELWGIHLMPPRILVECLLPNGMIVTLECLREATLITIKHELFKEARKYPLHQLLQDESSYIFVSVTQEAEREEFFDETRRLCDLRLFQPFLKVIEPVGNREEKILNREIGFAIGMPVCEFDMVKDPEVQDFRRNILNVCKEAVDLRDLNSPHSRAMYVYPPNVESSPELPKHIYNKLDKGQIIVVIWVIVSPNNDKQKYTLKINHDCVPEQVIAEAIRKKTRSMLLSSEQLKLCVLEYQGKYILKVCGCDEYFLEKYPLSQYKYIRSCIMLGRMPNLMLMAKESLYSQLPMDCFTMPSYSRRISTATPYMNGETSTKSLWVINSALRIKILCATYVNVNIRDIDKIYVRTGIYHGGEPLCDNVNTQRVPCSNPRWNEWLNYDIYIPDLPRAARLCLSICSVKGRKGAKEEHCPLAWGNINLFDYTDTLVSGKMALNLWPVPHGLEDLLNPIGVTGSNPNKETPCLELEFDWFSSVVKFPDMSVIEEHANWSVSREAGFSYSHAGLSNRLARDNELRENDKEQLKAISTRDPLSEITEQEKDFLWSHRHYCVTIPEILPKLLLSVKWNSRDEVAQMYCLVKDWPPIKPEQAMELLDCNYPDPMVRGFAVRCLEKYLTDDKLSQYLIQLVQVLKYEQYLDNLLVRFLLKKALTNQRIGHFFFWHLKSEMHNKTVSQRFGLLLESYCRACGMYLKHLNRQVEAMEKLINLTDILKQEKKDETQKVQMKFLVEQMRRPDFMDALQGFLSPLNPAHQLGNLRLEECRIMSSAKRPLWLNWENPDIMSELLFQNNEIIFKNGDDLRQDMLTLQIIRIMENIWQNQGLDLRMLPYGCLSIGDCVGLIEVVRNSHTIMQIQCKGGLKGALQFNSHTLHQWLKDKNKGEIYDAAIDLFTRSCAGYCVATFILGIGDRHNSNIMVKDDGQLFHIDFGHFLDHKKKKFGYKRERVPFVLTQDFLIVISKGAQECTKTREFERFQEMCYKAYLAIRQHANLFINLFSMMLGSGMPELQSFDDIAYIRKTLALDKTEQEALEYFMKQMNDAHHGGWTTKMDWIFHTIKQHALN
T4 sequence (P27986 whole entry partner, species assumed): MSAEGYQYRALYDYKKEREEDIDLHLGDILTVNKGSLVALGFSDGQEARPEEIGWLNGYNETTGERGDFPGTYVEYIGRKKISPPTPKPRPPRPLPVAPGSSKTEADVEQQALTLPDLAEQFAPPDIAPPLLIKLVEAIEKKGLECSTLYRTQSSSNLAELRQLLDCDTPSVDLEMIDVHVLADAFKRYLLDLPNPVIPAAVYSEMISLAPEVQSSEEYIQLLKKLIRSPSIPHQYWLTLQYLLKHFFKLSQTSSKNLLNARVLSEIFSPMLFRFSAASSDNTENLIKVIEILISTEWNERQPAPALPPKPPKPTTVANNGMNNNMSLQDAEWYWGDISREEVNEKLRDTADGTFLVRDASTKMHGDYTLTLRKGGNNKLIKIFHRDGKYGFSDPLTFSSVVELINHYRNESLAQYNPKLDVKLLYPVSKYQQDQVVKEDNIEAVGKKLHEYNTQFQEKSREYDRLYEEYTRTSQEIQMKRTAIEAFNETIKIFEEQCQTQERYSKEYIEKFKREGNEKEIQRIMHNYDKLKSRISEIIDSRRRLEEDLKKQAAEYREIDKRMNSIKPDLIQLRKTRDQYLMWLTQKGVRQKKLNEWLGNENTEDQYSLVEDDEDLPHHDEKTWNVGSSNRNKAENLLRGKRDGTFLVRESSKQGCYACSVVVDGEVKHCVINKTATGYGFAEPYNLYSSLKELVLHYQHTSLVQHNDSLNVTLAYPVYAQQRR
T2 sequence (P42338 whole entry, species assumed): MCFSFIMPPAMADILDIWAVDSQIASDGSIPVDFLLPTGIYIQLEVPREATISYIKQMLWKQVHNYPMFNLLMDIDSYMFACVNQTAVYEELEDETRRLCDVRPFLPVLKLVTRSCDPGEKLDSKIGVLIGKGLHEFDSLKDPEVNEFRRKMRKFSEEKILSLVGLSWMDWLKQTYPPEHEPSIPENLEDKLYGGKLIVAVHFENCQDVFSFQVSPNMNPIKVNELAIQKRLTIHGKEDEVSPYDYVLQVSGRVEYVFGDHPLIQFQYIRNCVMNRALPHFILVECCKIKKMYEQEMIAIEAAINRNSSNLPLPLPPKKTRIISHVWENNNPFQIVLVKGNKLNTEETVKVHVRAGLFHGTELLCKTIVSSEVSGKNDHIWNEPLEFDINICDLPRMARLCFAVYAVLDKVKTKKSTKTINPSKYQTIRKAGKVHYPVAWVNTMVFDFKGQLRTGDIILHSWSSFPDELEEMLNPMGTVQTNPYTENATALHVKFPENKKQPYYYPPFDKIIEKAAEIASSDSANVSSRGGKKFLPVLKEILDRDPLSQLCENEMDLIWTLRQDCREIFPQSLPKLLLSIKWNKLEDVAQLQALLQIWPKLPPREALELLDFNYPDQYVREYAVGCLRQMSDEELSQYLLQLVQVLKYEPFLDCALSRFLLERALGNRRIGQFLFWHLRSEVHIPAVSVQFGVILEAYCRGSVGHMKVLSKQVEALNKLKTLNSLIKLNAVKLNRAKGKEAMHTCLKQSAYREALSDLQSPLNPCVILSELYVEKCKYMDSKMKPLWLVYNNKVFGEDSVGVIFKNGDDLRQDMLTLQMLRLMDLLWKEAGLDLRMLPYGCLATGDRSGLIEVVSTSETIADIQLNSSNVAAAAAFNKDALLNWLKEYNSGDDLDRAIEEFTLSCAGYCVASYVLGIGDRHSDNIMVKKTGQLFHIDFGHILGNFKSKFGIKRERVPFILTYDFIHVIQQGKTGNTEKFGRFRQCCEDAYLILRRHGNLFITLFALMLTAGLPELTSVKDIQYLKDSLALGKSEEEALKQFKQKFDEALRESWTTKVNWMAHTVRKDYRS
T2 sequence (P27986 whole entry partner, species assumed): as the sequence (P27986 whole entry partner, species assumed) above
T1 sequence (P48736 whole entry): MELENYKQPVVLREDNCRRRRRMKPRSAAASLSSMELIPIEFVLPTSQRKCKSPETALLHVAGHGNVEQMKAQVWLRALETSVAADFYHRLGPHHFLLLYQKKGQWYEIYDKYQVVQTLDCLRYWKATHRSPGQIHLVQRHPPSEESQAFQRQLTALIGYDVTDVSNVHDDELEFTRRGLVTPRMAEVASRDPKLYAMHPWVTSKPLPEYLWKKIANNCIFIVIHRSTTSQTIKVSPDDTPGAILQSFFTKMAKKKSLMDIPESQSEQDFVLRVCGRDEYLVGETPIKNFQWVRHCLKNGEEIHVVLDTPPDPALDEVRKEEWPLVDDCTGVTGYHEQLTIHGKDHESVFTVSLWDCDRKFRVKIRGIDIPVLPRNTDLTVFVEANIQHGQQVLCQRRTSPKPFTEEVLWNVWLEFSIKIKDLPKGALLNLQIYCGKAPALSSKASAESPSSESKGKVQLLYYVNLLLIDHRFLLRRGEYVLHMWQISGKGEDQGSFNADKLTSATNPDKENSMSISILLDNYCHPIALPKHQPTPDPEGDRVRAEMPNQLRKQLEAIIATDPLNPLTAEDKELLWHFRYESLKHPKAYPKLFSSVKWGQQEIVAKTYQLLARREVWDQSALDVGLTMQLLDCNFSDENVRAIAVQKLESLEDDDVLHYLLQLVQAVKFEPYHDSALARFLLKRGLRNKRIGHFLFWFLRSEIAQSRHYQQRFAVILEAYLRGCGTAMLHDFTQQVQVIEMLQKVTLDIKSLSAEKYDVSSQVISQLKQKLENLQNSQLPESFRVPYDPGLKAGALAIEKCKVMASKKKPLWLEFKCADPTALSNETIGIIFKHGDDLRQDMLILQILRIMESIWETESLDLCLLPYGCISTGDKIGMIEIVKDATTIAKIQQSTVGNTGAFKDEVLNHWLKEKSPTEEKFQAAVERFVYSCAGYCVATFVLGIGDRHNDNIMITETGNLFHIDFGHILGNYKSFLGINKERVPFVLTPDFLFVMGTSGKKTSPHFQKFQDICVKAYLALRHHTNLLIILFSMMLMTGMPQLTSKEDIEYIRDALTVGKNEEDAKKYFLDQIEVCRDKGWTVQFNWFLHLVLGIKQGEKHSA
T3 sequence (O00329 whole entry): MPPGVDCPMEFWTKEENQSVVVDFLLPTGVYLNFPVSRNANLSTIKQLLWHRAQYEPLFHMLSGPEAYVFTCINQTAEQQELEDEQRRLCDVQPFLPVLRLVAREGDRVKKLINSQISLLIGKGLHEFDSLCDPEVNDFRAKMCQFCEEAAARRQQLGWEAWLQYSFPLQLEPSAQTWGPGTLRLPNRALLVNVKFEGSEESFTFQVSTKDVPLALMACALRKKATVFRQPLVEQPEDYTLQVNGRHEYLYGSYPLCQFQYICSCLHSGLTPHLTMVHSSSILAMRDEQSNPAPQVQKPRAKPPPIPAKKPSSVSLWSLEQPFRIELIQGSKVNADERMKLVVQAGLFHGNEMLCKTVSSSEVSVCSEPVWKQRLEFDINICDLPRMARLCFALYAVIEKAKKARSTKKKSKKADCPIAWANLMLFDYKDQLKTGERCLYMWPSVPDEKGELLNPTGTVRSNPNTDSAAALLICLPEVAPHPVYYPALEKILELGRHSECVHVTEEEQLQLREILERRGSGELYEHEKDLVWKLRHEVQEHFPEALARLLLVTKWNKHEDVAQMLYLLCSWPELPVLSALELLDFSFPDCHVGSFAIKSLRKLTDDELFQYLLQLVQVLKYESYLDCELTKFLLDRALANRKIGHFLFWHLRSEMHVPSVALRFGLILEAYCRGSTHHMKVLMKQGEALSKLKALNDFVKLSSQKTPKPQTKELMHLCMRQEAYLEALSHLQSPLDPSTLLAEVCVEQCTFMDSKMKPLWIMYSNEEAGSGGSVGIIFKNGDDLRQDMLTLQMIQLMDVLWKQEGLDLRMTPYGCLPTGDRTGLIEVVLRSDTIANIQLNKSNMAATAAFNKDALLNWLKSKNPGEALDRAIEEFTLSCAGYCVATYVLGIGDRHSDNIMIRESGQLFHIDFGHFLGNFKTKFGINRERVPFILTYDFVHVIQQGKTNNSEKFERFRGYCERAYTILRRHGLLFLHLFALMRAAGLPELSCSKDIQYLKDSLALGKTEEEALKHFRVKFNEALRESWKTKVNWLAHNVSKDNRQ
T3 sequence (P27986 whole entry partner): as the sequence (P27986 whole entry partner, species assumed) above

A word on the EC50: it is the concentration needed to bring the measured effect to its halfway point. Consider `CN(Cc1nc2c(N3CCOCC3)nc(-c3ccncc3)nc2n1C)c1ncc(C(=O)NO)cn1` [CLJ-8, 2-(((2-(4-pyridyl)-9-methyl-6-morpholine-9H-purine-8-yl))methyl(methyl)amino)-N-hydroxyl pyrimidine-5-formamide], for which the IC50 in series [1] is 1 to 10 nM; in [2], 10 to 100 nM; in [3], 0.1 to 10 nM; on PI3Kγ [4], > 10000 nM; at PI3Kβ, > 10000 nM; in series [6], 0.1 to 1 nM. For the same compound, the IC50 in series [8] was 1 to 10 nM; in series [9], 1 to 10 nM; at PI3Kδ, > 10000 nM; in series [10], 0.1 to 10 nM; in series [11], 0.1 to 1 nM; on PI3Kα (Table 1, graded), 1000 to 10000 nM. In addition, the IC50 fell in the range of 1000 to 10000 nM on PI3Kα (Table 4, graded); 1 to 10 nM in series [13]; 1 to 10 nM in series [14]. Moreover, the “Final survival condition (survived individuals/total individuals)” value in series [5] is 5/6. Also, the EC50 in series [7] and in series [12] was 100 to 200 nM in each case.

As to `COc1ccc(-c2nc(N3CCOCC3)c3sc(CN(C)c4ncc(C(=O)NO)cn4)cc3n2)cn1` [CUDC-907], the IC50 in the series with PI3Kγ [15] was 39 nM.

The record behind these values is patent US10227347B2, “Purinyl-N-hydroxyl pyrimidine formamide derivative, preparation methods and uses thereof” (Guizhou Bailing Group Pharmaceutical CO., LTD., priority 2015, dated 2019).
